Test results: US20240009179A1, “METHODS OF TREATING CYSTIC FIBROSIS USING WITH-NO-LYSINE (WNK) KINASE PATHWAY INHIBITORS” (UNIVERSITY OF IOWA RESEARCH FOUNDATION, priority 2022, published 2024)

Assays:
[1] = tested on: primary CF epithelia; assay: Ciliary beat frequency measurement; assay type: cell-based, human; conditions: WNK463 10 μM, 2 hours
Description: Ciliary beat frequency measurement. Phase contrast videos of ciliary motion were obtained using the Zeiss Axio Observer microscope at 50 frames per second at room temperature. A total of 256 frames (5.1 second videos) were obtained for each field. A minimum of five random fields per culture were selected. Whole field gaussian mean ciliary beat frequencies (CBF) were analyzed using the Sisson-Ammons video analysis software (SAVA; Ammons Engineering, Mt. Morris, MI) (41).

[2] = tested on: primary cultures of differentiated CF airway epithelia; assay: pHASL measurement (SNARF-1-dextran) in primary CF airway epithelia; assay type: cell-based, human
Excerpt: (§1) Cell culture. Primary cultures of differentiated airway epithelia were obtained without passage from multiple human donors as previously reported (37). Briefly, proximal bronchi were dissected, cut into small pieces, and enzymatically digested. Epithelial cells were isolated and seeded onto collagen-coated inserts (Costar, 3470; Falcon, 353180). Epithelia were differentiated at the air liquid interface for 3 weeks or more prior to assay. During the course of this study, new CF lung donors became scarce, partly due to more individuals taking highly-active CFTR modulators. To manage this situation, epithelial cells from previous CF donors cryopreserved at PO were thawed and differentiated. Whenever feasible, studies followed a paired design so that epithelia from the same donor were assayed under control and treatment conditions.
(§2) pHASL measurement. pHASL was measured using a fluorescent ratiometric pH indicator, SNARF-1, conjugated to 70 kD dextran (Thermo Fisher Scientific). SNARF-1-dextran was delivered as a powder to the apical side and allowed to distribute into ASL for 1 hour. Imaging was performed on a laser-scanning confocal microscope (Zeiss LSM 880). SNARF-1 was excited at 514 nm, and emissions at 580 nm and 640 nm were recorded. The ratio of fluorescence intensities (580/640) was obtained to calculate pH values using calibration curves constructed from colorless standard pH solutions. The microscope chamber housing epithelia maintained a humidified environment at 37° C. 5% CO2 was added to the chamber environment whenever the basolateral side was immersed in a HCO3^− containing buffer solution, but removed when a HCO3^−-free (HEPES) buffer solution was used.

[3] = tested on: NKCC1; assay: Ussing chamber, bumetanide-sensitive ISC in CF epithelia; assay type: cell-based, human; conditions: WNK463 10 μM, 2 hours, amiloride, UTP, then basolateral bumetanide
Description: (§3) Electrophysiologic studies. Airway epithelia were mounted in modified Ussing chambers (Physiologic Instruments) and bathed in symmetric Krebs buffer solution. The standard Krebs buffer contained (in mM): 118.9 NaCl, 25 NaHCO3, 2.4 K2HPO4, 0.6 KH2PO4, 1.2 MgCl2, 1.2 CaCl2), and 5 dextrose at 37° C., adjusted to pH 7.4 in the presence of 5% CO2. The HCO3^−-free solution contained (in mM): 135 NaCl, 2.4 K2HPO4, 0.6 KH2PO4, 1.2 MgCl2, 1.2 CaCl2), 5 HEPES, and 5 dextrose at 37° C., adjusted to pH 7.4 in nominally C02^−free environment. The Cl^−-free solution contained (in mM): 118.9 Na gluconate, 25 NaHCO3, 2.4 K2HPO4, 0.6 KH2PO4, 5 Ca gluconate, 1 Mg gluconate, 5 dextrose, at 37° C. and adjusted to pH 7.4 in the presence of 5% C02. Epithelia were voltage clamped, followed by recording of the short-circuit current (ISC) and transepithelial conductance (Gt). Exposure to either vehicle (DMSO) or WNK463 was continued during recording. The following agents were added apically (in μM): 100 amiloride, 20 uridine triphosphate (UTP), 100 4,4′-diisothiocyano-2,2′-stilbenedisulfonic acid (DIDS), 10 forskolin, and 10 CFTRinh-172. In some experiments, 100 μM bumetanide was also added to the serosal chambers.
(§4) Reducing basolateral Cl^−-entry increases CF pHASL. […] To estimate the contribution of NKCC1, we added basolateral bumetanide, and measured ΔISC. […]

[4] = tested on: primary CF epithelia; assay: Liquid absorption assay; assay type: cell-based, human; conditions: WNK463 10 μM, 4 hours
Description: Liquid absorption assay. Liquid absorption was measured using a previously reported method (40). Briefly, airway epithelia were transferred to 500 μl of fresh basolateral solution containing either vehicle or 10 μM WNK463. The apical side was suctioned dry and 30 μl of Krebs buffer solution was introduced. Of note, the apical solution had the same ionic composition, osmolality, and pH as the basolateral solution. After 4 hours, the apical liquid was collected with micropipettes (Drummond Microcaps #1-000-1000) and the height of the liquid column was recorded. Volume of liquid was calculated as the product of height and micropipette cross-sectional area. The difference between the original and 4-hour liquid volumes was used to calculate the rate of absorption (μl·cm^−2·h^−1).

[5] = tested on: CFTR; assay: Ussing chamber, response to CFTRinh-172 in non-CF epithelia; assay type: cell-based, human; conditions: WNK463 10 μM
Description: as §3
WNK463 reduces electrogenic Cl^− secretion. CFTR is the main route for anion exit across the apical membrane of airway epithelia. Whether WNK inhibition alters CFTR activity in airway epithelia is not well-established. To test, we exposed non-CF epithelia to WNK463 for 2 hours, and assayed in Ussing chambers containing symmetric Krebs solution (118 mM Cl^− and 25 mM HCO3^−, gassed with 5% CO2). After clamping transepithelial voltage, we recorded ISC and Gt, and elicited responses to selective channel inhibitors or activators (FIGS. 5A and 5B). We added amiloride followed by DIDS to abolish ENaC-mediated Na^+ absorption and Ca^2+-activated Cl^− channel (CaCC)-mediated anion secretion, respectively. Next, we added forskolin to increase cellular cAMP and thereby phosphorylate and activate CFTR channels. We concluded with CFTRinh-172, an inhibitor of CFTR. We assessed the response to CFTRinh-172 and used it to estimate CFTR channel activity. WNK463 reduced ΔISC-CFTR by ˜ 50% (FIG. 5C).

[6] = rat model of hypertension; cited from earlier work
[7] = tested on: NKCC1; assay: Ussing chamber, bumetanide-sensitive ISC in non-CF epithelia; assay type: cell-based, human; conditions: WNK463 10 μM, 2 hours, amiloride, forskolin, then basolateral bumetanide
Description: as §3, §4

[8] = tested on: S. aureus; assay: S. aureus killing assay (ASL antimicrobial activity, bacteria-coated grids); assay type: cell-based; conditions: primary CF epithelia; WNK463 10 μM, 2 hours
Description: S. aureus killing assay. ASL antimicrobial activity was assessed using bacteria-coated grids. Preparation, imaging, and quantification were performed as previously described (13). Briefly, S. aureus isolate SA-CL37 was grown to log-phase, labeled with biotin, and conjugated to streptavidin-coated gold electron microscopy grids. The grids were placed on the apical side of airway epithelia in direct contact with ASL. After incubating for 15 minutes in humidified, 5% CO2 chambers at 37° C., the grids were retrieved, rinsed with PBS, and immersed in SYTO9 and propidium iodide to determine bacterial viability (Live/Dead Bacterial Viability Assay, Invitrogen). The grids were washed, fixed with 4% paraformaldehyde, and imaged on the Olympus Fluoview FV 3000 confocal microscope. Images were analyzed for numbers of live and dead bacteria using the ImageJ software. For each grid, three separate regions were imaged. Two grids were assessed per epithelium and the results averaged to obtain % S. aureus killing.

[9] = tested on: primary CF epithelia; assay: ASL viscosity measurement (FRAP); assay type: cell-based, human; conditions: WNK463 10 μM, 2 hours
Description: ASL viscosity measurement. ASL viscosity was measured using the fluorescence recovery after photobleaching (FRAP) method as previously reported (12). Briefly, powdered FITC-dextran (70 kD, Sigma) was delivered to the apical side of airway epithelia, and allowed to equilibrate for 2 hours. Epithelia were moved to a humidified chamber on the Zeiss LSM 880 confocal microscope. The chamber maintained a temperature of 37° C. and an atmosphere of 5% CO2. After baseline imaging, a small region of interest was photobleached. Time series fluorescence recovery images were collected until maximal recovery was reached. For each epithelium, 4-5 curves from different locations were obtained and averaged. The time constant (T) was calculated from the fluorescence recovery curves using regression, and expressed as ASL value normalized to saline (τASL/τsaline).

[10] = tested on: TNFα/IL-17-treated CF epithelia; assay: pHASL measurement in TNFα/IL-17-treated CF epithelia; assay type: cell-based, human; conditions: CF epithelia treated with TNFα 10 ng/ml and IL-17 20 ng/ml for 48 hours, 2 hours
Description: To assess cytokine-induced responses, epithelia were treated with a combination of 10 ng/ml TNFα (R&D Systems) and 20 ng/ml IL-17 (R&D Systems). Both cytokines were added to the basolateral media for 48 hours prior to assessments. All studies were approved by the University of Iowa Institutional Review Board.
as §2

[11] = tested on: CaCC; assay: Ussing chamber, response to apical DIDS in CF epithelia; assay type: cell-based, human; conditions: WNK463 10 μM, 2 hours, after amiloride and UTP
Description: as §3
CF epithelia lack functional CFTR channels, but express CaCC. […] Next, we added DIDS, a non-specific CaCC inhibitor, and recorded the change in ISC and Gt.

[12] = tested on: primary cultures of non-CF epithelia; assay: pHASL measurement (SNARF-1-dextran) in primary non-CF airway epithelia; assay type: cell-based, human; conditions: WNK463 10 μM, 2 hours, 25 mM HCO3− and 5% CO2
Excerpt: as §1
pHASL measurement. pHASL was measured using a fluorescent ratiometric pH indicator, SNARF-1, conjugated to 70 kD dextran (Thermo Fisher Scientific). SNARF-1-dextran was delivered as a powder to the apical side and allowed to distribute into ASL for 1 hour. […] SNARF-1 was excited at 514 nm, and emissions at 580 nm and 640 nm were recorded. The ratio of fluorescence intensities (580/640) was obtained to calculate pH values using calibration curves constructed from colorless standard pH solutions. […]

[13] = tested on: airway epithelia; conditions: previous studies in airway epithelia; cited from earlier work
[14] = 2 hours, symmetric Krebs solution with Cl− and HCO3−

With `CC(C)(C)NC(=O)c1cncn1C1CCN(c2ccc(-c3nnc(C(F)(F)F)o3)cn2)CC1` [WNK463] the ciliary beat frequency [1] was “increased”, the pHASL ([2]; CF epithelia, WNK463 10 μM, 2 hours, in the absence of basolateral Cl−) was “failed to alkalinize” and the pHASL ([2]; primary CF epithelia, WNK463 10 μM, 2 hours, 25 mM HCO3− and 5% CO2) was “increased”. The “pHASL, time course” value ([2]; primary CF epithelia, continued exposure up to 24 hours versus 2 hours) was “did not further alkalinize”, the pHASL response ([2]; primary CF epithelia, nominally HCO3−/CO2-free environment (HEPES), WNK463 10 μM) was “disappeared” and the “bumetanide-sensitive ISC” value [3] was “reduced”. The “rate of apical liquid absorption” value [4] was “did not alter”, the ΔISC-CFTR ([5]; Cl−-free solution) was “remained unchanged” and the “reduction of ΔISC-CFTR” value [5, 14] was ~50%. For the same molecule, the ΔGt-CFTR [5, 14] was “remained unchanged”, the ΔISC-CFTR ([5]; symmetric HCO3−-free solution) was “reduced” and the adverse effects [6] was “adverse effects”. For the same molecule, the “bumetanide-sensitive ISC” value [7] was “reduced”, the “ASL-mediated S. aureus killing” value [8] was “increased” and the “ASL viscosity (τASL/τsaline)” value [9] was “decreased”. For the same molecule, the pHASL ([10]; WNK463 10 μM) was “further increased”, the “DIDS-sensitive ΔGt” value [11] was “slightly increased” and the “DIDS-sensitive ΔISC” value [11] was “decreased”. The pHASL [12] was “increased”.

For `CCCCNc1cc(C(=O)O)cc(S(N)(=O)=O)c1Oc1ccccc1` [bumetanide], the pHASL ([2]; CF epithelia, 2 hours after exposure to basolateral bumetanide) is given as “increased”, the “intracellular [Cl−]” value [13] is given as “decreases” and the pHASL ([10]; bumetanide 100 μM) is given as “further alkalinized”.

With `O=C(Nc1ccc(Oc2ccc(Cl)cc2)c(Cl)c1)c1cc(I)cc(I)c1O` [rafoxanide, Rafoxanide] the pHASL ([2]; primary CF epithelia, rafoxanide applied for 2 hours) was “increased”.
